Drawing on PubChem BioAssay AID743334 (Broad Institute, 2014), this text covers max activity and ATP level change, positive = increase for 58 compounds.

SMILES strings stand for the structures. Calls of active or inactive are those of the source.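 Rule for the calls: active = curve reaches 40% rise within the top valid dose, in every run; inconclusive = runs give conflicting calls; inactive = opposite-direction activity, or every run inactive.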

A short description of the assay: ATP change in C2C12 myotubes without statin, dose response, counter-screen for statin myotoxicity suppressor project, cell-based, no simvastatin, luminescence, dry powder (AID 743334). Conditions: C2C12 myotubes ATP, CellTiter-Glo luminescence, 48 h; for max activity: hits give high values.

Turning to `CCCNC(=O)N1[C@H](C#N)[C@@H](c2ccc(C3=CCCCC3)cc2)[C@@H]1CO`, the max activity is -7.65% (inactive). On to `O=C(C[C@H]1CC[C@@H]2[C@H](COC[C@@H](O)CN2Cc2ccc(Oc3ccccc3)cc2)O1)N1CCCCC1`, for which the max activity is 14% (inactive).

Take `C[C@@H]1CN([C@H](C)CO)C(=O)Cc2cc(NC(=O)CCCCCC(=O)Nc3ccccc3N)ccc2O[C@@H]1CN(C)Cc1ccc(Oc2ccccc2)cc1`: the max activity is -23.3% (inactive). For the compound `C[C@@H]1CN([C@@H](C)CO)C(=O)c2cc(NS(=O)(=O)c3ccc(Cl)cc3)ccc2O[C@H]1CN(C)C(=O)Nc1cccc2ccccc12`, the ATP level change, positive = increase (at 19.5 µM (top of the series)) is 6.56% (inactive). On to `C[C@H](CO)N1C[C@H](C)[C@@H](CN(C)Cc2ccc(C(=O)Nc3ccccc3N)cc2)Oc2ccc(NC(=O)Cc3cn(C)c4ccccc34)cc2C1=O`, for which the max activity was -9.11% (inactive). For the compound `COc1ccc(-c2ccc([C@@H]3[C@@H](C#N)N(C(=O)NC4CCCC4)[C@H]3CO)cc2)cc1`, the max activity is 5.47% (inactive).

On to `N#C[C@H]1N[C@@H](CO)[C@@H]1c1ccc(-c2cccc(F)c2)cc1`, for which the max activity was 7.67% (inactive). On to `C[C@@H]1CN([C@@H](C)CO)C(=O)c2cc(NC(=O)Cc3cn(C)c4ccccc34)ccc2O[C@H]1CN(C)Cc1ccc(C(=O)Nc2ccccc2N)cc1`, for which the max activity is -0.192% (inactive). For `CC(C)=CCC/C(C)=C/CC/C(C)=C/CC/C(C)=C/CO`, the max activity is 1.13% (inactive). With `C[C@@H]1CN([C@H](C)CO)C(=O)Cc2cc(NS(=O)(=O)c3cn(C)cn3)ccc2O[C@@H]1CN(C)Cc1ccc(Cl)c(Cl)c1`, for the setting “at 19.5 µM (top of the series)”, the ATP level change, positive = increase was 9.79% (inactive). As for `CCCNC(=O)N1[C@H](CO)[C@H](c2ccccc2)[C@@H]1C#N`, the max activity was -8.33% (inactive).

For the compound `C[C@H](CO)N1C[C@H](C)[C@H](CN(C)Cc2ccc(C(=O)Nc3ccccc3N)cc2)Oc2ccc(NC(=O)Cc3cn(C)c4ccccc34)cc2C1=O`, the max activity is 12.2% (inactive). Consider `N#C[C@H]1[C@H](c2ccc(C#Cc3ccc(F)cc3)cc2)[C@H](CO)N1c1nc(-c2ccccc2)cs1`, for which the max activity was 9.97% (inactive).

On to `CC(C)CC#Cc1cnc2c(c1)C(=O)N([C@H](C)CO)C[C@H](C)[C@@H](CN(C)C(=O)Cc1ccccc1)O2`, for which the ATP level change, positive = increase (at 21 µM (top of the series)) was 6.23% (inactive). With `N#C[C@@H]1[C@@H](c2ccccc2)[C@H](CO)N1S(=O)(=O)c1ccc(-c2ccccc2)cc1`, the max activity is -5.62% (inactive). Turning to `C[C@H]1CN([C@@H](C)CO)C(=O)Cc2cc(NC(=O)CCCCCC(=O)Nc3ccccc3N)ccc2O[C@H]1CN(C)CC1CCCCC1`, the max activity was 11.1% (inactive).

As to `C[C@@H]1CN([C@H](C)CO)C(=O)c2cccc(NC(=O)Nc3ccc4c(c3)OCO4)c2O[C@H]1CN(C)Cc1ccc(C(=O)Nc2ccccc2N)cc1`, the max activity is -9.22% (inactive). Regarding `C[C@@H]1CN([C@H](C)CO)C(=O)c2cc(NC(=O)Cc3cn(C)c4ccccc34)ccc2O[C@H]1CN(C)Cc1ccc(C(=O)Nc2ccccc2N)cc1`, the max activity is 9.28% (inactive). On to `C[C@H]1CN([C@@H](C)CO)C(=O)Cc2cc(NC(=O)CCCCCC(=O)Nc3ccccc3N)ccc2O[C@@H]1CN(C)Cc1ccc(Oc2ccccc2)cc1`, for which the max activity was -15.5% (inactive).

`COc1ccc(S(=O)(=O)Nc2ccc3c(c2)CC(=O)N([C@H](C)CO)C[C@@H](C)[C@H](CN(C)CC2CCCCC2)O3)cc1`: the max activity is -10.2% (inactive).

Consider `C[C@H](CO)N1C[C@H](C)[C@@H](CN(C)Cc2ccc(Oc3ccccc3)cc2)Oc2c(NC(=O)Nc3cccc4ccccc34)cccc2C1=O`, for which the ATP level change, positive = increase (at 19.5 µM (top of the series)) is 8.68% (inactive). `N#C[C@@H]1[C@@H](c2ccccc2-c2cccc(F)c2)[C@H](CO)N1C(=O)NC1CCCC1`: the max activity was 11.6% (inactive).

With `C[C@H]1CN([C@@H](C)CO)C(=O)Cc2cc(NS(=O)(=O)c3ccc(Cl)cc3)ccc2O[C@@H]1CN(C)CC1CCCCC1`, the max activity is 4.91% (inactive). Regarding `C[C@@H]1CN([C@H](C)CO)C(=O)c2cccc(NC(=O)c3nc4ccccc4s3)c2O[C@@H]1CN(C)Cc1ccc(C(=O)Nc2ccccc2N)cc1`, the max activity is -20.8% (inactive). Same read-out and setting: for `N#C[C@@H]1[C@@H](c2ccc(-c3cccc(F)c3)cc2)[C@@H](CO)N1C(=O)NC1CCCC1` the value was 2.16% (inactive); for `C[C@@H]1CN([C@@H](C)CO)C(=O)c2cc(NC(=O)Cc3cn(C)c4ccccc34)ccc2O[C@@H]1CN(C)Cc1ccc(C(=O)Nc2ccccc2N)cc1`, 14.1% (inactive). For `CN(C)C(=O)c1cccc(-c2ccc([C@@H]3[C@@H](C#N)N(C(=O)C4CCCC4)[C@@H]3CO)cc2)c1`, the max activity was -5.88% (inactive). With `CCCNC(=O)N1[C@@H](C#N)[C@@H](c2ccc(-c3ccccc3F)cc2)[C@@H]1CO`, the max activity was 6.49% (inactive). Same read-out and setting: for `COc1ccc(C#Cc2cnc3c(c2)C(=O)N([C@H](C)CO)C[C@H](C)[C@H](CN(C)Cc2ccccc2)O3)cc1OC` the value was 15.6% (inactive). The same measure, in the same setting: for `N#C[C@@H]1[C@H](c2ccc(-c3cccc(F)c3)cc2)[C@@H](CO)N1C(=O)NC1CCCC1` the value was -0.345% (inactive).

`Cc1noc(C)c1S(=O)(=O)Nc1ccc2c(c1)CC(=O)N([C@H](C)CO)C[C@H](C)[C@@H](CN(C)Cc1ccc(C(F)(F)F)cc1)O2`: the ATP level change, positive = increase (at 19.5 µM (top of the series)) is 10.6% (inactive). With `N#C[C@@H]1[C@H](c2ccc(-c3cccc(F)c3)cc2)[C@H](CO)N1C(=O)NC1CCCC1`, the max activity was -18.6% (inactive).

On to `N#C[C@@H]1[C@@H](c2ccc(C3=CCCCC3)cc2)[C@H](CO)N1C(=O)NC1CCCC1`, for which the max activity was -9.58% (inactive). `C[C@H]1CN([C@@H](C)CO)C(=O)Cc2cc(NC(=O)CCCCCC(=O)Nc3ccccc3N)ccc2O[C@H]1CN(C)Cc1ccc(Oc2ccccc2)cc1`: the max activity was -10.2% (inactive).

On to `C[C@@H]1CN([C@H](C)CO)C(=O)Cc2cc(NC(=O)C3CCCCC3)ccc2O[C@H]1CN(C)Cc1ccc(Cl)c(Cl)c1`, for which the ATP level change, positive = increase (at 19.5 µM (top of the series)) is 15.1% (inactive). Take `C[C@H](CO)N1C[C@H](C)[C@H](CN(C)Cc2ccc(C(=O)Nc3ccccc3N)cc2)Oc2ccc(NC(=O)Nc3cccc4ccccc34)cc2CC1=O`: the max activity is -21.1% (inactive).

For `COCC(=O)N1[C@H](C#N)[C@@H](c2ccc(-c3cccc(F)c3)cc2)[C@@H]1CO`, the max activity was 6.18% (inactive).

With `C[C@H]1CN([C@@H](C)CO)S(=O)(=O)c2ccc(C#CC3CC3)cc2O[C@H]1CN(C)C(=O)Nc1cc(F)ccc1F`, the max activity is -12.1% (inactive). As for `Cc1ccc(S(=O)(=O)Nc2ccc3c(c2)CC(=O)N([C@@H](C)CO)C[C@@H](C)[C@H](CN(C)Cc2ccc(-c4ccccc4)cc2)O3)cc1`, the ATP level change, positive = increase (at 19.5 µM (top of the series)) is -0.559% (inactive). For the compound `N#C[C@H]1[C@H](c2ccc(C#CCC3CCCC3)cc2)[C@@H](CO)N1C(=O)CN1CCOCC1`, the max activity was -19% (inactive). The same measure, in the same setting: for `C[C@H]1CN([C@@H](C)CO)C(=O)c2cc(NC(=O)Cc3cn(C)c4ccccc34)ccc2O[C@H]1CN(C)Cc1ccc(C(=O)Nc2ccccc2N)cc1` the value was 5.76% (inactive); for `C[C@@H]1CN([C@H](C)CO)C(=O)c2cc(NC(=O)Cc3cn(C)c4ccccc34)ccc2O[C@@H]1CN(C)Cc1ccc(C(=O)Nc2ccccc2N)cc1`, -0.539% (inactive); for `CN1C(=O)c2cc(NC(=O)c3ccc(F)c(F)c3)ccc2OC[C@H]2O[C@@H](CC(=O)Nc3ccc4c(c3)COC4)CC[C@@H]21`, 12.6% (inactive).

For the compound `N#C[C@@H]1[C@@H](c2ccccc2-c2ccc(F)cc2)[C@H](CO)N1C(=O)NC1CCCC1`, the max activity is -6.02% (inactive). On to `N#C[C@@H]1[C@@H](c2ccc(C#Cc3cccnc3)cc2)[C@@H](CO)N1C(=O)C1CCCC1`, for which the max activity was -10.7% (inactive).

Consider `C[C@H](CO)N1C[C@H](C)[C@H](CN(C)Cc2ccc(C(=O)Nc3ccccc3N)cc2)Oc2ccc(N(C)C)cc2C1=O`, for which the max activity was -24.5% (inactive). Turning to `C[C@@H]1CN([C@@H](C)CO)C(=O)Cc2cc(NC(=O)CCCCCC(=O)Nc3ccccc3N)ccc2O[C@@H]1CN(C)Cc1ccc(Oc2ccccc2)cc1`, the max activity is -25.1% (inactive).

As to `C[C@H](CO)N1C[C@H](C)[C@H](CN(C)Cc2ccc(Oc3ccccc3)cc2)Oc2ccc(NC(=O)CCCCCC(=O)Nc3ccccc3N)cc2CC1=O`, the max activity was -48.9% (inactive). Regarding `C[C@H](CO)N1C[C@H](C)[C@H](CN(C)Cc2ccc(C(=O)Nc3ccccc3N)cc2)Oc2ccc(NC(=O)Nc3ccc(F)cc3)cc2CC1=O`, the max activity was -33.9% (inactive). Regarding `O=C(C[C@H]1CC[C@@H]2[C@H](COC[C@H](O)CN2CCC(F)(F)F)O1)NCc1ccc(Oc2ccccc2)cc1`, the max activity was 9.67% (inactive). For `N#C[C@@H]1[C@@H](c2ccc(-c3cccc(F)c3)cc2)[C@H](CO)N1C(=O)c1cccnc1`, the max activity was 6.17% (inactive).

Regarding `C[C@H]1CN([C@@H](C)CO)S(=O)(=O)c2ccc(C#Cc3ccc(F)cc3)cc2O[C@@H]1CN(C)S(=O)(=O)c1cn(C)cn1`, the ATP level change, positive = increase (at 19.5 µM (top of the series)) was 6.04% (inactive). As to `CCCC#Cc1ccc([C@H]2[C@@H](C#N)N(S(=O)(=O)c3cccc(F)c3)[C@H]2CO)cc1`, the max activity is 3.4% (inactive).

As to `C[C@H](CO)N1C[C@H](C)[C@H](CN(C)Cc2ccc(C(=O)Nc3ccccc3N)cc2)Oc2ccc(NC(=O)Nc3cccc4ccccc34)cc2C1=O`, the max activity was -0.211% (inactive). For the compound `CCS(=O)(=O)N1[C@H](C#N)[C@@H](c2ccc(-c3cccc(F)c3)cc2)[C@@H]1CO`, the max activity was -8.9% (inactive).

For the compound `N#C[C@H]1[C@@H](c2ccc(-c3cccc(F)c3)cc2)[C@H](CO)N1C(=O)NC1CCCC1`, the max activity was 9.12% (inactive). Same read-out and setting: for `N#C[C@H]1[C@@H](c2ccc(-c3cccc(F)c3)cc2)[C@@H](CO)N1C(=O)NC1CCCC1` the value was -0.663% (inactive).

As to `COc1ccc(S(=O)(=O)N(C)C[C@H]2Oc3c(NC(=O)Nc4ccccc4)cccc3C(=O)N([C@H](C)CO)C[C@H]2C)cc1`, the ATP level change, positive = increase (at 19.5 µM (top of the series)) is 7.7% (inactive).
